Experimental data reported in US12077503B2, “Substituted cyclic amides and their use as herbicides” (FMC CORPORATION, priority 2015, dated 2024).
Blank lines part the entries; values can stand above or below the compound they belong to.

Columns and labels:
corn (Zea mays) = assay: Test G Pre-Emergence Protocol; type: in vivo; conditions: Zea mays, pre-emergence, 312 h, evaluated after 13 days; for plant injury at 15.625 g/ha: 15.625 g ai/ha; for plant injury at 15.625 g/ha / plant injury at 250 g/ha: read-out: Corn damage rating (100=total damage to plant; 0=no damage to plant); for plant injury at 62.5 g/ha: 62.5 g ai/ha, 100=total damage to plant, 0=no damage to plant, read-out: plant damage rating, Corn; for plant injury at 250 g/ha: 250 g ai/ha
How it was run: (§1)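 Scores are visual damage ratings from 0 (no damage) to 100 (total plant kill), taken 13 days after treatment. Compound was sprayed one day post-sowing at 15.625, 62.5 or 250 g/ha in 50:50 acetone/water with 0.5% Tween 20.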

[1] = tested on: redroot pigweed (Amaranthus retroflexus); assay: Test G Pre-Emergence Protocol; type: in vivo; conditions: Amaranthus retroflexus, pre-emergence, 312 h, evaluated after 13 days; for pest or weed control at 15.625 g/ha: 15.625 g ai/ha; for pest or weed control at 15.625 g/ha / pest or weed control at 250 g/ha: read-out: Pigweed, Redroot damage rating (100=total damage to plant; 0=no damage to plant); for pest or weed control at 62.5 g/ha: 62.5 g ai/ha, 100=total damage to plant, 0=no damage to plant, read-out: plant damage rating, Pigweed, Redroot; for pest or weed control at 250 g/ha: 250 g ai/ha
How it was run: as §1

[2] = tested on: giant foxtail (Setaria faberi); assay: Test G Pre-Emergence Protocol; type: in vivo; conditions: Setaria faberi, pre-emergence, 312 h, evaluated after 13 days; for pest or weed control at 15.625 g/ha: 15.625 g ai/ha; for pest or weed control at 15.625 g/ha / pest or weed control at 250 g/ha: read-out: Foxtail, Giant damage rating (100=total damage to plant; 0=no damage to plant); for pest or weed control at 62.5 g/ha: 62.5 g ai/ha, 100=total damage to plant, 0=no damage to plant, read-out: plant damage rating, Foxtail, Giant; for pest or weed control at 250 g/ha: 250 g ai/ha
How it was run: as §1

[3] = tested on: barnyardgrass (Echinochloa crus-galli); assay: Test G Pre-Emergence Protocol; type: in vivo; conditions: Echinochloa crus-galli, pre-emergence, 312 h, evaluated after 13 days; for pest or weed control at 15.625 g/ha: 15.625 g ai/ha, read-out: Barnyard grass damage rating (100=total damage to plant; 0=no damage to plant); for pest or weed control at 62.5 g/ha: 62.5 g ai/ha, 100=total damage to plant, 0=no damage to plant, read-out: plant damage rating, Barnyardgrass; for pest or weed control at 250 g/ha: 250 g ai/ha, read-out: Barnyardgrass damage rating (100=total damage to plant; 0=no damage to plant)
How it was run: as §1

[4] = tested on: ivy-leaved morning glory (Ipomoea hederacea); assay: Test G Pre-Emergence Protocol; type: in vivo; conditions: Ipomoea, pre-emergence, 312 h, evaluated after 13 days; for pest or weed control at 15.625 g/ha: 15.625 g ai/ha, read-out: Morning-glory, Ivy-leaved damage rating (100=total damage to plant; 0=no damage to plant); for pest or weed control at 62.5 g/ha: 62.5 g ai/ha, 100=total damage to plant, 0=no damage to plant, read-out: plant damage rating, Morningglory, Ivy-leaved; for pest or weed control at 250 g/ha: 250 g ai/ha, read-out: Morningglory, Ivy-leaved damage rating (100=total damage to plant; 0=no damage to plant)
How it was run: as §1

[5] = tested on: velvetleaf (Abutilon theophrasti); assay: Test G Pre-Emergence Protocol; type: in vivo; conditions: Abutilon theophrasti, pre-emergence, 312 h, evaluated after 13 days; for pest or weed control at 15.625 g/ha: 15.625 g ai/ha; for pest or weed control at 15.625 g/ha / pest or weed control at 250 g/ha: read-out: Velvetleaf damage rating (100=total damage to plant; 0=no damage to plant); for pest or weed control at 62.5 g/ha: 62.5 g ai/ha, 100=total damage to plant, 0=no damage to plant, read-out: plant damage rating, Velvetleaf; for pest or weed control at 250 g/ha: 250 g ai/ha
How it was run: as §1

[6] = tested on: barnyardgrass (Echinochloa crus-galli); assay: Test A preemergence; type: in vivo; conditions: Echinochloa crus-galli, pre-emergence, 240 h, 0 to 100 scale (0 no effect, 100 complete control), read-out: Plant response rating, Barnyardgrass; for pest or weed control at 500 g/ha: 500 g ai/ha, preemergence; for pest or weed control at 125 g/ha: Preemergence, 125 g ai/ha
How it was run: (§2)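 In a loam soil and sand blend, planted seeds got a preemergence directed soil spray, and young plants at the one- to two-leaf stage, 2–10 cm high, got a postemergence application; ~10 d greenhouse hold; injury rated visually, 0 = none, 100 = complete control.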

[7] = tested on: pigweed (Amaranthus retroflexus); assay: Test A preemergence; type: in vivo; conditions: Amaranthus retroflexus, pre-emergence, 240 h, 0 to 100 scale (0 no effect, 100 complete control), read-out: Plant response rating, Pigweed; for pest or weed control at 500 g/ha: 500 g ai/ha, preemergence; for pest or weed control at 125 g/ha: Preemergence, 125 g ai/ha
[8] = tested on: giant foxtail (Setaria faberii); assay: Test A preemergence; type: in vivo; conditions: Setaria faberi, pre-emergence, 240 h, 0 to 100 scale (0 no effect, 100 complete control), read-out: Plant response rating, Foxtail, Giant; for pest or weed control at 500 g/ha: 500 g ai/ha, preemergence; for pest or weed control at 125 g/ha: Preemergence, 125 g ai/ha
How it was run: as §2

Compound: CN1C[C@@H](c2ccc(C(F)(F)F)cc2)[C@H](C(=O)Nc2ncc(C#N)s2)C1=O (racemic) [Compound 1528]
plant injury at 15.625 g/ha (corn (Zea mays)): 0% | plant injury at 62.5 g/ha (corn (Zea mays)): 0% | plant injury at 250 g/ha (corn (Zea mays)): 0% | pest or weed control at 15.625 g/ha [1]: 0% | pest or weed control at 62.5 g/ha [1]: 0% | pest or weed control at 250 g/ha [1]: 0% | pest or weed control at 15.625 g/ha [2]: 0% | pest or weed control at 62.5 g/ha [2]: 0% | pest or weed control at 250 g/ha [2]: 0% | pest or weed control at 15.625 g/ha [3]: 0% | pest or weed control at 62.5 g/ha [3]: 0% | pest or weed control at 250 g/ha [3]: 0% | pest or weed control at 15.625 g/ha [4]: 0% | pest or weed control at 62.5 g/ha [4]: 0% | pest or weed control at 250 g/ha [4]: 0% | pest or weed control at 15.625 g/ha [5]: 0% | pest or weed control at 62.5 g/ha [5]: 0% | pest or weed control at 250 g/ha [5]: 0%

Compound: CN1C[C@@H](c2ccc(C(F)(F)F)cc2)[C@H](C(=O)Nc2ccccc2)C1=O (racemic) [Compound 1404]
plant injury at 15.625 g/ha (corn (Zea mays)): 0% | plant injury at 62.5 g/ha (corn (Zea mays)): 0% | plant injury at 250 g/ha (corn (Zea mays)): 0% | pest or weed control at 15.625 g/ha [1]: 0% | pest or weed control at 62.5 g/ha [1]: 0% | pest or weed control at 250 g/ha [1]: 20% | pest or weed control at 15.625 g/ha [2]: 0% | pest or weed control at 62.5 g/ha [2]: 70% | pest or weed control at 250 g/ha [2]: 80% | pest or weed control at 15.625 g/ha [3]: 0% | pest or weed control at 62.5 g/ha [3]: 20% | pest or weed control at 250 g/ha [3]: 70% | pest or weed control at 15.625 g/ha [4]: 0% | pest or weed control at 62.5 g/ha [4]: 10% | pest or weed control at 250 g/ha [4]: 20% | pest or weed control at 15.625 g/ha [5]: 0% | pest or weed control at 62.5 g/ha [5]: 0% | pest or weed control at 250 g/ha [5]: 0%

Compound: Cc1cc(NC(=O)[C@@H]2C(=O)N(C)C[C@H]2c2ccc(C(F)(F)F)cc2)n[nH]1 (racemic) [Compound 1532]
plant injury at 15.625 g/ha (corn (Zea mays)): 0% | plant injury at 62.5 g/ha (corn (Zea mays)): 0% | plant injury at 250 g/ha (corn (Zea mays)): 0% | pest or weed control at 15.625 g/ha [1]: 0% | pest or weed control at 62.5 g/ha [1]: 0% | pest or weed control at 250 g/ha [1]: 0% | pest or weed control at 15.625 g/ha [2]: 100% | pest or weed control at 62.5 g/ha [2]: 100% | pest or weed control at 250 g/ha [2]: 0% | pest or weed control at 15.625 g/ha [3]: 0% | pest or weed control at 62.5 g/ha [3]: 30% | pest or weed control at 250 g/ha [3]: 0% | pest or weed control at 15.625 g/ha [4]: 0% | pest or weed control at 62.5 g/ha [4]: 0% | pest or weed control at 250 g/ha [4]: 0% | pest or weed control at 15.625 g/ha [5]: 0% | pest or weed control at 62.5 g/ha [5]: 0% | pest or weed control at 250 g/ha [5]: 0%

melting point: 180 to 181 °C
Compound: O=C1NCC(c2ccccc2)C1C(=O)Nc1ccccc1 (stereo not shown) [Compound 1358]
pest or weed control at 500 g/ha [6]: 0% | pest or weed control at 125 g/ha [6]: 0% | pest or weed control at 500 g/ha [7]: 0% | pest or weed control at 125 g/ha [7]: 0% | pest or weed control at 500 g/ha [8]: 0% | pest or weed control at 125 g/ha [8]: 0%

Compound: Cc1cscc1NC(=O)[C@@H]1C(=O)N(C)C[C@H]1c1ccc(C(F)(F)F)cc1 (racemic) [Compound 1526]
plant injury at 15.625 g/ha (corn (Zea mays)): 0% | plant injury at 62.5 g/ha (corn (Zea mays)): 0% | plant injury at 250 g/ha (corn (Zea mays)): 10% | pest or weed control at 15.625 g/ha [1]: 0% | pest or weed control at 62.5 g/ha [1]: 50% | pest or weed control at 250 g/ha [1]: 70% | pest or weed control at 15.625 g/ha [2]: 30% | pest or weed control at 62.5 g/ha [2]: 50% | pest or weed control at 250 g/ha [2]: 90% | pest or weed control at 15.625 g/ha [3]: 20% | pest or weed control at 62.5 g/ha [3]: 60% | pest or weed control at 250 g/ha [3]: 80% | pest or weed control at 15.625 g/ha [4]: 10% | pest or weed control at 250 g/ha [4]: 0% | pest or weed control at 15.625 g/ha [5]: 0% | pest or weed control at 62.5 g/ha [5]: 0% | pest or weed control at 250 g/ha [5]: 0%

Compound: CN1C[C@@H](c2ccc(C(F)(F)F)cc2)[C@H](C(=O)Nc2ccno2)C1=O (racemic) [Compound 1513]
plant injury at 15.625 g/ha (corn (Zea mays)): 0% | plant injury at 62.5 g/ha (corn (Zea mays)): 0% | plant injury at 250 g/ha (corn (Zea mays)): 0% | pest or weed control at 15.625 g/ha [1]: 0% | pest or weed control at 62.5 g/ha [1]: 0% | pest or weed control at 250 g/ha [1]: 0% | pest or weed control at 15.625 g/ha [2]: 0% | pest or weed control at 62.5 g/ha [2]: 0% | pest or weed control at 250 g/ha [2]: 0% | pest or weed control at 15.625 g/ha [3]: 0% | pest or weed control at 62.5 g/ha [3]: 0% | pest or weed control at 250 g/ha [3]: 0% | pest or weed control at 15.625 g/ha [4]: 0% | pest or weed control at 62.5 g/ha [4]: 0% | pest or weed control at 250 g/ha [4]: 0% | pest or weed control at 15.625 g/ha [5]: 0% | pest or weed control at 62.5 g/ha [5]: 0% | pest or weed control at 250 g/ha [5]: 0%

melting point: 186 to 188 °C
Compound: N#Cc1ccc(NC(=O)C2C(=O)NCC2c2ccccc2)cc1 (stereo not shown) [Compound 1355]
pest or weed control at 500 g/ha [6]: 0% | pest or weed control at 125 g/ha [6]: 0% | pest or weed control at 500 g/ha [7]: 0% | pest or weed control at 125 g/ha [7]: 0% | pest or weed control at 500 g/ha [8]: 0% | pest or weed control at 125 g/ha [8]: 0%

Compound: CN1C[C@@H](c2ccc(C(F)(F)F)cc2)[C@H](C(=O)Nc2ncc(Br)cn2)C1=O (racemic) [Compound 1514]
plant injury at 15.625 g/ha (corn (Zea mays)): 0% | plant injury at 62.5 g/ha (corn (Zea mays)): 0% | plant injury at 250 g/ha (corn (Zea mays)): 0% | pest or weed control at 15.625 g/ha [1]: 0% | pest or weed control at 62.5 g/ha [1]: 0% | pest or weed control at 250 g/ha [1]: 0% | pest or weed control at 15.625 g/ha [2]: 0% | pest or weed control at 62.5 g/ha [2]: 0% | pest or weed control at 250 g/ha [2]: 0% | pest or weed control at 15.625 g/ha [3]: 0% | pest or weed control at 62.5 g/ha [3]: 0% | pest or weed control at 250 g/ha [3]: 0% | pest or weed control at 15.625 g/ha [4]: 0% | pest or weed control at 62.5 g/ha [4]: 0% | pest or weed control at 250 g/ha [4]: 0% | pest or weed control at 15.625 g/ha [5]: 0% | pest or weed control at 62.5 g/ha [5]: 0% | pest or weed control at 250 g/ha [5]: 0%
